Reference: patent US10292985B2, “TGF beta receptor antagonists” (BRISTOL-MYERS SQUIBB COMPANY, priority 2015, dated 2019)

Target: HIS-TGFβR1 T204D (Homo sapiens (Human), UniProt P36897, T204D)
Experiment: HTRF probe-displacement assay, TGFβR1
Format: binding
Procedure: Em: 520 nm/495 nm). […] Compounds were dissolved at 10 mM in dimethylsulfoxide (DMSO) and evaluated at eleven concentrations. IC50 values were derived by non-linear regression analysis.

[1] = HIS-TGFβR1 T204D, 1 nM, 1 hour at room temperature
[2] = GST tagged wild type protein used instead of HIS-tagged protein (starred values)

HIS-TGFβR1 T204D, sequence (P36897 34-503 T204D): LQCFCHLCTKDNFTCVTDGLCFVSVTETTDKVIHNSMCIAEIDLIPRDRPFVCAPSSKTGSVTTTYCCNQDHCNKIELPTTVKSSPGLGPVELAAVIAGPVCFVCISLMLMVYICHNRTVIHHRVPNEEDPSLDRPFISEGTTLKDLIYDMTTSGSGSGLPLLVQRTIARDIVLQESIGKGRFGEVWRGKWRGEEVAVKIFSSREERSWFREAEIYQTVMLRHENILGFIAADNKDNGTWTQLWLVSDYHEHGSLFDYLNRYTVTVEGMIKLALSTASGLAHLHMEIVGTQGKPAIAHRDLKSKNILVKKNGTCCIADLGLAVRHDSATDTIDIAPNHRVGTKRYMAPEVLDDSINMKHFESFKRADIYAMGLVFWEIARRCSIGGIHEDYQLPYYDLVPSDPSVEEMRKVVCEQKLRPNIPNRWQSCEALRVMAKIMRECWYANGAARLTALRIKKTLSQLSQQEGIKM

| IC50 [1] [nM] | IC50 [2] [nM] | Structure (SMILES) |
| --- | --- | --- |
|  | 280 | Cc1cccc(-c2nc(Nc3ccnc4ccc(Br)cc34)c3cccn3n2)n1 [Example 12, 6-bromo-N-[2-(6-methylpyridin-2-yl)pyrrolo[2,1-f][1,2,4]triazin-4-yl]quinolin-4-amine] |
| 1.8 |  | COc1ccc2c(Nc3nc(-c4cccc(C(F)F)n4)nn4cccc34)ccnc2c1 [Example 21, N-{2-[6-(difluoromethyl)pyridin-2-yl]pyrrolo[2,1-f][1,2,4]triazin-4-yl}-7-methoxyquinolin-4-amine] |
| 6.4 |  | COc1ccc2nccc(Nc3nc(-c4cccc(C)n4)nn4cccc34)c2c1 [Example 11, 6-methoxy-N-[2-(6-methylpyridin-2-yl)pyrrolo[2,1-f][1,2,4]triazin-4-yl]quinolin-4-amine] |
| 13000 |  | COc1cccc(-c2nc(Nc3ccc4ncccc4c3)c3cccn3n2)n1 [Example 3, N-(2-(6-methoxypyridin-2-yl)pyrrolo[2,1-f][1,2,4]triazin-4-yl)quinolin-6-amine] |
| 5.1 |  | Cc1cccc(-c2nc(Nc3ccnc4cccnc34)c3cccn3n2)n1 [Example 19, N-[2-(6-methylpyridin-2-yl)pyrrolo[2,1-f][1,2,4]triazin-4-yl]-1,5-naphthyridin-4-amine] |
| 1.5 |  | Cc1cccc(-c2nc(Nc3ccc4[nH]ncc4c3)c3cccn3n2)n1 [Example 36, N-[2-(6-methylpyridin-2-yl)pyrrolo[2,1-f][1,2,4]triazin-4-yl]-1H-indazol-5-amine] |
| 4.4 |  | Cc1cccc(-c2nc(Nc3ccnc4ccncc34)c3cccn3n2)n1 [Example 18, N-[2-(6-methylpyridin-2-yl)pyrrolo[2,1-f][1,2,4]triazin-4-yl]-1,6-naphthyridin-4-amine] |
| 6.6 |  | Cc1cccc(-c2nc(Nc3ccnc4ccc(F)cc34)c3cccn3n2)n1 [Example 14, 6-fluoro-N-[2-(6-methylpyridin-2-yl)pyrrolo[2,1-f][1,2,4]triazin-4-yl]quinolin-4-amine] |
| 4.7 |  | Cc1cccc(-c2nc(Nc3ccnc4ccc(Cl)cc34)c3cccn3n2)n1 [Example 15, 6-chloro-N-[2-(6-methylpyridin-2-yl)pyrrolo[2,1-f][1,2,4]triazin-4-yl]quinolin-4-amine] |
| 4.2 |  | COc1ccc2c(Nc3nc(-c4cccc(C(F)(F)F)n4)nn4cccc34)ccnc2c1 [Example 20, 7-methoxy-N-{2-[6-(trifluoromethyl)pyridin-2-yl]pyrrolo[2,1-f][1,2,4]triazin-4-yl}quinolin-4-amine] |
| 1.4 |  | Cc1cccc(-c2nc(Nc3ccnc4cc(C(F)(F)F)ccc34)c3cccn3n2)n1 [Example 17, N-[2-(6-methylpyridin-2-yl)pyrrolo[2,1-f][1,2,4]triazin-4-yl]-7-(trifluoromethyl)quinolin-4-amine] |
|  | 940 | Cc1cccc(-c2nc(Nc3ccnc4ccc(C(F)(F)F)cc34)c3cccn3n2)n1 [Example 16, N-[2-(6-methylpyridin-2-yl)pyrrolo[2,1-f][1,2,4]triazin-4-yl]-6-(trifluoromethyl)quinolin-4-amine] |
| 5.8 |  | FC(F)c1cccc(-c2nc(Nc3ccnc4cccnc34)c3cccn3n2)n1 [Example 22, N-{2-[6-(difluoromethyl)pyridin-2-yl]pyrrolo[2,1-f][1,2,4]triazin-4-yl}-1,5-napthyridin-4-amine] |
| 1.1 |  | COc1ccc2c(Nc3nc(-c4cccc(C)n4)nn4cccc34)ccnc2c1 [Example 13, 7-methoxy-N-[2-(6-methylpyridin-2-yl)pyrrolo[2,1-f][1,2,4]triazin-4-yl]quinolin-4-amine] |

Continued, compound first:

| Structure (SMILES) | IC50 [1] [nM] | IC50 [2] [nM] |
| --- | --- | --- |
| FC(F)c1cccc(-c2nc(-n3ccc4cnccc43)c3cccn3n2)n1 [Example 29, 2-(difluoromethyl)-6-(4-{1H-pyrrolo[3,2-c]pyridin-1-yl}pyrrolo[2,1-f][1,2,4]triazin-2-yl)pyridine] | 2.9 |  |
| COc1cccc(-c2nc(-n3ncc4cnccc43)c3cccn3n2)n1 [Example 30, 2-methoxy-6-(4-{1H-pyrazolo[4,3-c]pyridin-1-yl}pyrrolo[2,1-f][1,2,4]triazin-2-yl)pyridine] | 67 |  |
| CS(=O)(=O)Nc1cccc(-c2nc(-n3ccc4cnccc43)c3cccn3n2)n1 [Example 25, N-[6-(4-{1H-pyrrolo[3,2-c]pyridin-1-yl}pyrrolo[2,1-f][1,2,4]triazin-2-yl)pyridin-2-yl]methanesulfonamide] |  | 33 |
| CCc1cccc(-c2nc(-n3ccc4cnccc43)c3cccn3n2)n1 [Example 26, 2-ethyl-6-(4-{1H-pyrrolo[3,2-c]pyridin-1-yl}pyrrolo[2,1-f][1,2,4]triazin-2-yl)pyridine] | 1.2 |  |
| COc1cccc(-c2nc(-n3ccc4cnccc43)c3cccn3n2)n1 [Example 32, 2-methoxy-6-(4-{1H-pyrrolo[3,2-c]pyridin-1-yl}pyrrolo[2,1-f][1,2,4]triazin-2-yl)pyridine] | 6.2 |  |
| Cc1cccc(-c2nc(-n3ccc4cnccc43)c3cccn3n2)n1 [Example 5, 2-methyl-6-(4-{1H-pyrrolo[3,2-c]pyridin-1-yl}pyrrolo[2,1-f][1,2,4]triazin-2-yl)pyridine] | 0.96 |  |
| COc1cccc(-c2nc(-n3ccc4cnccc43)c3c(Cl)ccn3n2)n1 [Example 24, 2-(5-chloro-4-{1H-pyrrolo[3,2-c]pyridin-1-yl}pyrrolo[2,1-f][1,2,4]triazin-2-yl)-6-methoxypyridine] | 10 |  |
| c1ccc(-c2nc(-n3cnc4cnccc43)c3cccn3n2)nc1 [Example 9, 2-(4-{1H-imidazo[4,5-c]pyridin-1-yl}pyrrolo[2,1-f][1,2,4]triazin-2-yl)pyridine] | 5.1 |  |
| FC(F)(F)c1cccc(-c2nc(-n3ccc4cnccc43)c3cccn3n2)n1 [Example 28, 2-(4-{1H-pyrrolo[3,2-c]pyridin-1-yl}pyrrolo[2,1-f][1,2,4]triazin-2-yl)-6-(trifluoromethyl)pyridine] | 3.8 |  |
| c1ccc(-c2nc(-n3ccc4cnccc43)c3cccn3n2)nc1 [Example 8, 2-(4-{1H-pyrrolo[3,2-c]pyridin-1-yl}pyrrolo[2,1-f][1,2,4]triazin-2-yl)pyridine] | 1.1 |  |
| Cn1cnc2ccc(Nc3nc(-c4ccccn4)nn4cccc34)cc21 [Example 7, 1-methyl-N-[2-(pyridin-2-yl)pyrrolo[2,1-f][1,2,4]triazin-4-yl]-1H-1,3-benzodiazol-6-amine] | 240 |  |
| FC(F)(F)c1cccc(-c2nc(Nc3ccnc4cccnc34)c3cccn3n2)n1 [Example 2, N-{2-[6-(trifluoromethyl)pyridin-2-yl]pyrrolo[2,1-f][1,2,4]triazin-4-yl}-1,5-naphthyridin-4-amine] | 20 |  |
| c1cc(-c2nc(-n3ccc4cnccc43)c3cccn3n2)nc(C2CC2)c1 [Example 27, 2-cyclopropyl-6-(4-{1H-pyrrolo[3,2-c]pyridin-1-yl}pyrrolo[2,1-f][1,2,4]triazin-2-yl)pyridine] | 1.3 |  |
| c1ccc(-c2nc(-n3ccc4ccncc43)c3cccn3n2)nc1 [Example 10, 2-(4-{1H-pyrrolo[2,3-c]pyridin-1-yl}pyrrolo[2,1-f][1,2,4]triazin-2-yl)pyridine] | 310 |  |
| Cc1ccc(-c2nc(-n3ccc4cnccc43)c3cccn3n2)nc1 [Example 34, 5-methyl-2-(4-{1H-pyrrolo[3,2-c]pyridin-1-yl}pyrrolo[2,1-f][1,2,4]triazin-2-yl)pyridine] | 12 |  |
| Fc1cccc(-c2nc(-n3ccc4cnccc43)c3cccn3n2)n1 [Example 6, 2-fluoro-6-(4-{1H-pyrrolo[3,2-c]pyridin-1-yl}pyrrolo[2,1-f][1,2,4]triazin-2-yl)pyridine] | 1.4 |  |
| Clc1cccc(-c2nc(-n3ccc4cnccc43)c3cccn3n2)n1 [Example 31, 2-chloro-6-(4-{1H-pyrrolo[3,2-c]pyridin-1}-ylpyrrolo[2,1-f][1,2,4]triazin-2-yl)pyridine] | 4.7 |  |
| Cc1ccc(F)c(-c2nc(-n3ccc4cnccc43)c3cccn3n2)n1 [Example 4, 3-fluoro-6-methyl-2-(4-{1H-pyrrolo[3,2-c]pyridin-1-yl}pyrrolo[2,1-f][1,2,4]triazin-2-yl)pyridine] |  | 18 |
| Cc1nc(-c2nc(-n3ccc4cnccc43)c3cccn3n2)ccc1F [Example 23, 3-fluoro-2-methyl-6-(4-{1H-pyrrolo[3,2-c]pyridin-1-yl}pyrrolo[2,1-f][1,2,4]triazin-2-yl)pyridine] | 1.3 |  |
| CSc1nccc(-c2nc(-n3ccc4cnccc43)c3cccn3n2)n1 [Example 35, 2-(methylsulfanyl)-4-(4-{1H-pyrrolo[3,2-c]pyridin-1-yl}pyrrolo[2,1-f][1,2,4]triazin-2-yl)pyrimidine] | 2.2 |  |
